Legend:
MAPK p38 = MAPK p38 Activation Assay in PANC-1; type: cell-based, human; set-up: key: Y = yes; N = No; conditions: at 10 μM
Description: Cell lines: Human tumor-derived pancreatic cancer cell line Panc-1 and mouse muscle myoblast C2C12 were purchased from American Type Culture Collection and grown in complete DMEM-High Glucose, supplemented with penicillin (100 U/mL), streptomycin (100 μg/mL), and 10% heat-inactivated FBS at 37° C. in a humidified incubator with 5% C02.
Method: Cells were plated at 350000 cells/well density in a 12-well plate, allowed 3 hours to adhere to the plate, then starved in the appropriate medium in the presence of 0.5% FBS overnight. The small molecules to be tested were added to the cells in the final concentration of 10 μM in the presence of 0.3% DMSO for 3 hours incubation at 37° C. For IC50 value determination, serial dilutions of compounds were added to cells under the same conditions. […] Protein concentration was assessed by BCA protein assay (Thermo Scientific). Phosphorylation level of MAPK p38 was determined by western blot.
Western blot protocol: Equal amounts of protein (15-50 μg) were separated by SDS-PAGE and transferred to nitrocellulose membranes (Invitrogen by Thermo Fisher Scientific). […] Membranes were blocked with 10% milk and phosphorylation levels of Smad2/Smad3 were assessed by incubating overnight at 4° C. with the following antibody: Phospho-p38 MAPK (Thr180/Tyr182), from Cell Signaling Technology. […]

KRas G12C mutant = experiment: Ras GTP Binding Domain Inhibition Assay, KRas G12C mutant; conditions: at 20 μM
Outline: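 Compounds were tested at 20 μM final, or as dilution series for IC50, against nickel-plate-captured His-tagged GTPase proteins for 3 h at room temperature. Sos exchange factor could be present for the last hour. Labelled GTP (100 nM Cy3 or Cy5) was then bound for 45 min, wells were washed, and retained fluorescence was measured.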

CO[C@H]1CC[C@@H](Nc2nc(-c3nccn3C)nc3sc(-c4ccn(C)n4)c(-c4ccccc4)c23)C1 (racemic) [Compound 5, rac-N-((1R,3S)-3-Methoxycyclopentyl)-2-(1-methyl-1H-imidazol-2-yl)-6-(1-methyl-1H-pyrazol-3-yl)-5-phenylthieno[2,3-d]pyrimidin-4-amine]
Activation of MAPK p38 in PANC-1 (MAPK p38): Y | KRas G12C mutant + SOS: % inh. (KRas G12C mutant; with SOS): D (D = 76-100% inhibition) | KRas G12C mutant: % inh. (KRas G12C mutant; without SOS): B (B = 26-45% inhibition)

From patent US20240309015A1, “Methods for the Treatment of Fibrotic Disease” (SHY Therapeutics, LLC, priority 2021, published 2024)
